For this data set the following is noted: Liquid.

The structures appear in SMILES notation. Numbers after ± are expanded uncertainties.

Here are results for two compounds from the NIST ThermoML archive (doi:10.1016/j.jct.2018.11.015).

The term vapor or sublimation pressure denotes the equilibrium pressure above the liquid or solid.

Take `CCCCOC(=O)c1ccccc1C(=O)OCc1ccccc1` [benzyl butyl 1,2-benzenedioate]: the “vapor or sublimation pressure” value stood at 1.4e-05 ± 2e-06 kPa (343.15 K, Transpiration method); 5.6e-05 ± 9e-06 kPa (353.15 K, Transpiration method); 0.00039 ± 5e-05 kPa (373.15 K, Transpiration method); 0.0022 ± 0.00031 kPa (393.15 K, Transpiration method); 0.0238 ± 0.0034 kPa (423.15 K, Transpiration method).
On to `COC(=O)c1ccccc1C(=O)OC` [dimethyl 1,2-benzenedicarboxylate], for which the “vapor or sublimation pressure” value was found to be 0.00141 ± 0.00023 kPa (313.15 K, Transpiration method); 0.00789 ± 0.00067 kPa (333.15 K, Transpiration method); 0.0297 ± 0.0019 kPa (350.9 K, Closed cell (Static) method); 0.0332 ± 0.0022 kPa (353.15 K, Transpiration method); 0.0589 ± 0.0037 kPa (361.52 K, Closed cell (Static) method); 0.1104 ± 0.0069 kPa (371.6 K, Closed cell (Static) method). Moreover, the “vapor or sublimation pressure” value reads like this: (373.15 K, Transpiration method) 0.122 ± 0.007 kPa; (381.69 K, Closed cell (Static) method) 0.1986 ± 0.012 kPa; (391.77 K, Closed cell (Static) method) 0.3453 ± 0.021 kPa; (393.15 K, Transpiration method) 0.391 ± 0.024 kPa; (401.71 K, Closed cell (Static) method) 0.5751 ± 0.035 kPa; (411.72 K, Closed cell (Static) method) 0.9413 ± 0.038 kPa. Moreover, the “vapor or sublimation pressure” value reads like this: (421.57 K, Closed cell (Static) method) 1.491 ± 0.06 kPa; (423.15 K, Transpiration method) 1.668 ± 0.09 kPa.
